Experimental findings from patent US20240262830A1, “IRE1A MODULATORS AND USES THEREOF” (Nimbus Iaso, Inc., priority 2020, published 2024) are described below.

Experiment [1] addresses T1, truncated human IRE1a WT protein, containing the catalytic part (aa 547-977) (Homo sapiens, UniProt O75460).
T1 construct: containing the catalytic part (aa 547-977); made in house
Briefly: IRE1a biochemical enzyme splice assay. The following applies: 20 nM protein, 500 nM fluorescently quenched IRE1a substrate, 40 min at room temperature; read-out: EnzymeSplice_hIRE1a_IC50 (IC50). The method, then: A truncated human IRE1a WT protein, containing the catalytic part (aa 547-977) was expressed in baculovirus. The purified protein (20 nM) was incubated with a fluorescently quenched IRE1a substrate (500 nM; 5′/6-FAM-CAGUCCGCAGCACUG-BHQ-1/3′) and a titration of inhibitor, starting at 10 μM (final DMSO concentration=1%) for 40 min at room temperature in assay buffer. Reactions were carried out in a final volume of […] in a 384 well assay plate. The reaction was stopped, and the plate was spun for 1 minute at 1000 rpm. The fluorescence intensity of the IRE1a-substrate was measured using an fluorescent plate reader (Ex 485 nm/Em 535 nm, Perkin Elmer Envision).

A further experiment concerns hIRE1a. Briefly: XBP1-Luc cell assay. The format is cell-based. The following applies: Homo sapiens; HEK293-pLVX-XBP1.fluc-IRES-Puro cells, 600 nM Thapsigargin 1 hour, then inhibitor 6 hours; read-out: fLuc_XBP1_hIRE1a_HEK293_IC50 (IC50). The method, then:
HEK293-pLVX-XBP1.fluc-IRES-Puro cells (ChemPartner) were collected into DMEM (Invitrogen, 11995-065) with 10% FBS (BI, 04-002-1A). Cells were seeded at 1.5E4 cells/well in BioCoat Poly-D-Lysine Black/Clear flat bottom 96 well plate (Corning, 356640) and incubated overnight at 37° C. and 5% CO2. Cells were treated with 600 nM Thapsigargin (Sigma, T9033) for 1 hour at 37° C. and 5% CO2 prior to inhibitor addition. A titration of inhibitor, starting at 30 μM was added to wells for an additional 6 hours at 37° C. and 5% CO2. 100 μl of Steady-Glo Luciferase assay reagent (Promega, E2550) was added to plate and the plate was shaken for 2 minutes. Signal was read using EnSpire (Perkin Elmer).

T1 sequence (O75460 547-977): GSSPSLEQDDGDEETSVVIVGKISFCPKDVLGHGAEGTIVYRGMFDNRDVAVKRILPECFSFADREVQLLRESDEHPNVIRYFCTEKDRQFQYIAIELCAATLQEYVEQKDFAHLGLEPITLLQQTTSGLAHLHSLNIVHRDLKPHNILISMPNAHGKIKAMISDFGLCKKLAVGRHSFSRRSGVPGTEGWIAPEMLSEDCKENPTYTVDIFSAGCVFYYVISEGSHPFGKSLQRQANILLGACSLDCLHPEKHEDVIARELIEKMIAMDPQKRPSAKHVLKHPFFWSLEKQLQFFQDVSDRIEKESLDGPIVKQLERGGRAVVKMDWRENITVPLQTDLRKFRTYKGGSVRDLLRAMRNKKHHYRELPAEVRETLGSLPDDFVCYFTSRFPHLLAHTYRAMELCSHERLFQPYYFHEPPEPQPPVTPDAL

For the compound `CCc1cc(-c2ccc3c(NS(=O)(=O)c4ccccc4Cl)ncnn23)cc2cnc(N[C@H]3CC[C@H](O)C3)nc12` [Compound I-14, 2-chloro-N-(7-(8-ethyl-2-(((1S,3S)-3-hydroxycyclopentyl)amino)quinazolin-6-yl)pyrrolo[2,1-f][1,2,4]triazin-4-yl)benzenesulfonamide], the IC50 in experiment [1] was < 100 nM; in the experiment with hIRE1a, > 10000 nM. As for `CCc1cc(-c2ccc3c(NS(=O)(=O)c4ccccc4)ncnn23)cc2cnc(N[C@H]3CCCNC3)nc12` [Compound I-26, (S)—N-(7-(8-ethyl-2-(piperidin-3-ylamino)quinazolin-6-yl)pyrrolo[2,1-f][1,2,4]triazin-4-yl)benzenesulfonamide], the values for the IC50 (in experiment [1]; with hIRE1a) were < 100 nM and 1000 to 10000 nM, respectively. Regarding `CCc1cc(-c2ccc3c(NC(=O)NC4CC4)ncnn23)cc2cnc(NC3CCCNC3)nc12` (stereo in doubt) [Compound I-24, 3-cyclopropyl-1-(7-{8-ethyl-2-[(3R)-piperidin-3-ylamino]quinazolin-6-yl}pyrrolo[2,1-f][1,2,4]triazin-4-yl)urea], the IC50 in experiment [1] was 100 to 1000 nM; in the experiment on hIRE1a, < 1000 nM.

Consider `CCc1cc(-c2ccc3c(NS(=O)(=O)c4ccccc4Cl)ncnn23)cc2cnc(N[C@H]3CCCC[C@@H]3O)nc12` [Compound I-4, 2-chloro-N-(7-(8-ethyl-2-(((1S,2S)-2-hydroxycyclohexyl)amino)quinazolin-6-yl)pyrrolo[2,1-f][1,2,4]triazin-4-yl)benzenesulfonamide], for which the IC50 in experiment [1] was 100 to 1000 nM; in the experiment on hIRE1a, > 10000 nM. For `CCc1cc(-c2ccc3c(NS(=O)(=O)c4ccccc4Cl)ncnn23)cc2cnc(NC[C@@H]3CCCNC3)nc12` [Compound I-17, (R)-2-chloro-N-(7-(8-ethyl-2-((piperidin-3-ylmethyl)amino)quinazolin-6-yl)pyrrolo[2,1-f][1,2,4]triazin-4-yl)benzenesulfonamide], the half-maximal inhibitory concentration (IC50) in experiment [1] is 100 to 1000 nM; in the experiment with hIRE1a it was > 10000 nM. In the case of `CCc1cc(-c2ccc3c(NS(=O)(=O)c4ccc(C(F)(F)F)cc4Cl)ncnn23)cc2cnc(N[C@H]3CCCNC3)nc12` [Compound I-34, (S)-2-chloro-N-(7-(8-ethyl-2-(piperidin-3-ylamino)quinazolin-6-yl)pyrrolo[2,1-f][1,2,4]triazin-4-yl)-4-(trifluoromethyl)benzenesulfonamide], the IC50 in experiment [1] was > 1000 nM. As for `CCc1cc(-c2ccc3c(NS(=O)(=O)Cc4ccccc4)ncnn23)cc2cnc(N[C@H]3CCCNC3)nc12` [Compound I-7, (S)—N-(7-(8-ethyl-2-(piperidin-3-ylamino)quinazolin-6-yl)pyrrolo[2,1-f][1,2,4]triazin-4-yl)-1-phenylmethanesulfonamide], the values for the IC50 (in experiment [1]; in the experiment with hIRE1a) were < 100 nM and < 1000 nM, respectively.

For the compound `CCc1cc(-c2ccc3c(NS(=O)(=O)c4ccccc4Cl)ncnn23)cc2cnc(N[C@H]3CCNC3)nc12` [Compound I-11, (S)-2-chloro-N-(7-(8-ethyl-2-(pyrrolidin-3-ylamino)quinazolin-6-yl)pyrrolo[2,1-f][1,2,4]triazin-4-yl)benzenesulfonamide], the concentration for half-maximal inhibition (IC50) in experiment [1] was < 100 nM; in the experiment with hIRE1a, 1000 to 10000 nM. `CCc1cc(-c2ccc3c(NS(=O)(=O)c4ccccc4Cl)ncnn23)cc2cnc(NC[C@H]3CCCNC3)nc12` [Compound I-8, (S)-2-chloro-N-(7-(8-ethyl-2-((piperidin-3-ylmethyl)amino)quinazolin-6-yl)pyrrolo[2,1-f][1,2,4]triazin-4-yl)benzenesulfonamide]: the figures for the IC50 (in experiment [1]; in the experiment with hIRE1a) were < 100 nM and 1000 to 10000 nM, respectively. The corresponding values for `CCc1cc(-c2ccc3c(NS(=O)(=O)c4ccccc4Cl)ncnn23)cc2cnc(NC[C@@H]3CCCCN3)nc12` [Compound I-18, (S)-2-chloro-N-(7-(8-ethyl-2-((piperidin-2-ylmethyl)amino)quinazolin-6-yl)pyrrolo[2,1-f][1,2,4]triazin-4-yl)benzenesulfonamide] are 100 to 1000 nM and > 10000 nM. For `CCc1cc(-c2ccc3c(NS(=O)(=O)c4ccccc4F)ncnn23)cc2cnc(N[C@H]3CCCNC3)nc12` [Compound I-1, (S)—N-(7-(8-ethyl-2-(piperidin-3-ylamino)quinazolin-6-yl)pyrrolo[2,1-f][1,2,4]triazin-4-yl)-2-fluorobenzenesulfonamide], the values for the IC50 (in experiment [1]; in the experiment on hIRE1a) were < 100 nM and < 1000 nM, respectively. The corresponding values for `CCc1cc(-c2ccc3c(NC[C@H](O)CC)ncnn23)cc2cnc(N[C@H]3CCCNC3)nc12` [Compound I-20, (R)-1-((7-(8-ethyl-2-(((S)-piperidin-3-yl)amino)quinazolin-6-yl)pyrrolo[2,1-f][1,2,4]triazin-4-yl)amino)butan-2-ol] are 100 to 1000 nM and 1000 to 10000 nM. In the case of `CCc1cc(-c2csc3c(NS(=O)(=O)c4ccccc4Cl)ncnc23)cc2cnc(N[C@H]3CCCNC3)nc12` [Compound I-23, (S)-2-chloro-N-(7-(8-ethyl-2-(piperidin-3-ylamino)quinazolin-6-yl)thieno[3,2-d]pyrimidin-4-yl)benzenesulfonamide], the IC50 in experiment [1] was < 100 nM; in the experiment on hIRE1a it was 1000 to 10000 nM. As to `CCCS(=O)(=O)Nc1ncnn2c(-c3cc(CC)c4nc(N[C@H]5CCCNC5)ncc4c3)ccc12` [Compound I-33, (S)—N-(7-(8-ethyl-2-(piperidin-3-ylamino)quinazolin-6-yl)pyrrolo[2,1-f][1,2,4]triazin-4-yl)propane-1-sulfonamide], the IC50 in experiment [1] was < 100 nM; with hIRE1a, < 1000 nM. `CCc1cc(-c2ccc3c(NS(=O)(=O)c4ccccc4Cl)ncnn23)cc2cnc(N[C@H]3CCCC[C@H]3O)nc12` [Compound I-10, 2-chloro-N-(7-(8-ethyl-2-(((1S,2R)-2-hydroxycyclohexyl)amino)quinazolin-6-yl)pyrrolo[2,1-f][1,2,4]triazin-4-yl)benzenesulfonamide]: the IC50 in experiment [1] was > 1000 nM.

In the case of `CCc1cc(-c2ccc3c(NS(=O)(=O)c4ccccc4Cl)ncnn23)cc2cnc(N[C@H]3CCCNC3)nc12` [Compound I-22, (S)-2-chloro-N-(7-(8-ethyl-2-(piperidin-3-ylamino)quinazolin-6-yl)pyrrolo[2,1-f][1,2,4]triazin-4-yl)benzenesulfonamide], the figures for the IC50 (in experiment [1]; with hIRE1a) were < 100 nM and < 1000 nM, respectively.

Take `CCc1cc(-c2ccc3c(NS(=O)(=O)c4ccc(OC(F)(F)F)cc4)ncnn23)cc2cnc(N[C@H]3CCCNC3)nc12` [Compound I-27, (S)—N-(7-(8-ethyl-2-(piperidin-3-ylamino)quinazolin-6-yl)pyrrolo[2,1-f][1,2,4]triazin-4-yl)-4-(trifluoromethoxy)benzenesulfonamide]: the IC50 fell in the range of 100 to 1000 nM in experiment [1] and 1000 to 10000 nM in the experiment with hIRE1a. Consider `CCc1cc(-c2ccc3c(NS(=O)(=O)C4CCCCC4)ncnn23)cc2cnc(N[C@H]3CCCNC3)nc12` [Compound I-3, (S)—N-(7-(8-ethyl-2-(piperidin-3-ylamino)quinazolin-6-yl)pyrrolo[2,1-f][1,2,4]triazin-4-yl)cyclohexanesulfonamide], for which the IC50 was < 100 nM in experiment [1] and < 1000 nM in the experiment on hIRE1a. `CCc1cc(-c2ccc3c(NS(=O)(=O)c4ccccc4Cl)ncnn23)cc2cnc(N[C@H]3CCCC[C@@H]3N)nc12` [Compound I-13, N-(7-(2-(((1S,2S)-2-aminocyclohexyl)amino)-8-ethylquinazolin-6-yl)pyrrolo[2,1-f][1,2,4]triazin-4-yl)-2-chlorobenzenesulfonamide]: in experiment [1], the IC50 is > 1000 nM.
